For nine compounds, IC50 results are on record in ChEMBL document CHEMBL1150126, “Oxidation products of abietic acid and its methyl ester” (J Nat Prod, 2002).

The term IC50 denotes the midpoint of a concentration-inhibition curve.

≈ marks a conversion by molar mass, not a printed value.

In one assay the test system is KB. Nature of the assay: Cytotoxicity against human KB cells. The assay is classed as functional, cell-based. Particulars: Homo sapiens, KB; read-out: IC50; call rule not given here.
For the compound `COC(=O)[C@]1(C)CCC[C@]2(C)c3ccc(C(C)C)cc3[C@H](O)C[C@@H]12`, the IC50 was determined as 5.8 µg/mL (≈ 17.6 µM).
For the compound `COC(=O)[C@]1(C)CCC[C@@]2(C)[C@H]1CC=C1C=C(C(C)C)C(=O)C[C@@H]12`, the IC50 turned out to be 12.5 µg/mL (≈ 37.8 µM).
On to `COC(=O)[C@]1(C)CCC[C@]2(C)c3ccc(C(C)C)cc3C(=O)C[C@@H]12`, for which the IC50 amounted to 4.5 µg/mL (≈ 13.7 µM).

Still in this assay, the particulars now being: kb.
With `CC(C)(O)c1ccc2c(c1)[C@H](O)C[C@H]1[C@](C)(C(=O)O)CCC[C@]21C`, the IC50 result is “Not Active”.
`CCO[C@@]1(C(C)C)C=C2[C@H](O)C[C@@H]3[C@](C)(CCC[C@@]3(C)C(=O)OC)[C@H]2CC1`: the IC50 result was “Not Active”.
On the same count and under the same terms, in the case of `COC(=O)[C@]1(C)CCC[C@@]2(C)[C@H]1CC=C1C=C(C(C)C)CC[C@@H]12` [METHYL ABIETATE] it was “Not Active”; in that of `COC(=O)[C@]1(C)CCC[C@@]2(C)[C@H]1C[C@@H](O)C1=C[C@@](O)(C(C)C)CC[C@@H]12`, “Not Active”.
On the same count and under the same terms, as for `CC(C)C(=O)CC[C@H]1C(C=O)=CC[C@@H]2[C@]1(C)CCC[C@@]2(C)C(=O)O`, the entry is “Not Active”; as for `CC(C)C1=CC2=CC[C@@H]3[C@](C)(CCC[C@@]3(C)C(=O)O)[C@H]2CC1` [ABIETIC ACID], “Not Active”.
